Data on two molecules can be found in patent publication US11938133B2, “Stable pharmaceutical composition for oral administration” (ASTELLAS PHARMA INC., priority 2015, dated 2024).

A short description of data set [1]: Calculation of proportion of crystals by near-infrared spectroscopy. In kind it is physicochemical. To be noted: Compound A hemifumarate after water was added to the crystals and dried (material used for Examples 4 to 15). As to the method: As a method of calculating the proportion of crystals of Compound A hemifumarate in Compound A hemifumarate, for example, the spectrum is measured, as a near-infrared spectroscopy measurement, by a Fourier transform near-infrared spectrometer (MPA, Bruker Optics K. K.)(measurement range; 12500 cm^−1 to 5800 cm^−1, resolution; 8 cm^−1, number of scans; 32), and the obtained spectrum is secondary-differentiated (Savitzky-Golay convolution method), and can be analyzed using a near-infrared spectrum analysis software (for example, OPUS, Bruker Optics K. K.). The pharmaceutical composition for oral administration is powdered using a mortar and pestle to measure the spectrum. Before the spectrum measurement of the pharmaceutical composition for oral administration, spectra of preparations, in which crystals of Compound A hemifumarate are mixed in various proportions, are regression-analyzed by a partial least square method to create a calibration curve, and each spectrum obtained from the pharmaceutical composition for oral administration is interpolated into the calibration curve to calculate the proportion of crystals of Compound A hemifumarate.
With respect to the tablets (film coated tablets) prepared in Comparative Example 1, Example 1, Example 2, and Example 3, the proportion of crystals of Compound A hemifumarate after production was calculated by near-infrared spectroscopy. […]

The nature of data set [2]: Stability of drug substance alone in heat and humidity (severity test or the like). The format is physicochemical. Particulars: certain storage conditions such as a severity test.
The subject of data set [3] is EML4 (Echinoderm microtubule associated protein like-4)-ALK (Anaplastic lymphoma kinase) fusion protein. Particulars: reported in Patent literature 1 (WO 2010/128659); cited from earlier work.

Each structure is given as a SMILES string.

As to `CCc1nc(C(N)=O)c(Nc2ccc(N3CCC(N4CCN(C)CC4)CC3)c(OC)c2)nc1NC1CCOCC1` [Compound A hemifumarate], the Proportion of crystals in data set [1] is 62%. The “Stability of drug substance alone (in words)” value in data set [2] is “stable in heat and humidity alone”.

Regarding `CCc1nc(C(N)=O)c(Nc2ccc(N3CCC(N4CCN(C)CC4)CC3)c(OC)c2)nc1NC1CCOCC1` [Compound A, 6-Ethyl-3-({3-methoxy-4-[4-(4-methylpiperazin-1-yl)piperidin-1-yl]phenyl}amino)-5-(tetrahydro-2H-pyran-4-ylamino)pyrazine-2-carboxamide], in data set [3], the “Inhibitory activity of a kinase activity of EML4-ALK fusion protein” value was “inhibitory activity”.
